Laboratory results reported in US5851782A, “Inhibitors of ceramidase” (Duke University, priority 1996, dated 1998).

Assays:
alkaline ceramidase = test: Alkaline ceramidase activity in vitro at pH 9.0; format: biochemical, human; settings: for use as substrate by alkaline ceramidase: 50 μM tritium-labeled substrate, HL-60 preparation
Description: Measurement of ceramidase activity in HL-60 cells. Ceramidase activity in HL-60 cells was measured by a modification of the method of Gatt and Yavin (Methods Enzymol. 14:139 (1969)). Cells were disrupted by sonication in 0.25M sucrose, 1 mM EDTA, and centrifuged at 10,000×g for 10 min after which the supernatant was centrifuged at 100,000×g for 60 min. Ten μl of 1 mM ceramide substrate ([^3 H]C16 -ceramide) was mixed with 100 μl of Triton X-100 (0.1%) in chloroform/methanol, 2:1, and 100 μl of 0.2% sodium cholate in chloroform/methanol, 2:1, after which the solvent was evaporated under N2 at 70° C. To this mixture, 30 μl of water was added and the tubes were heated for 5 s in an 80° C. water bath and then put on ice. Fifty μl of the appropriate buffer depending on desired pH was added followed by 20 μl of 50 mM MgCl2 and 100 μl of cell extract. In experiments using inhibitors, the desired inhibitor was added in ethanol either with the substrate or directly to the final solution. The reaction mixture was incubated for 1 h at 37° C. The ^3 H-fatty acid products of ceramidase were separated by the addition of 2 ml of Dole's solution (isopropyl alcohol, heptane, NaOH), 1.2 ml of heptane, and 1 ml of water. After vortexing and centrifugation, the upper phase was discarded and the lower phase was washed twice with heptane and the upper phase discarded each time. Finally, 1 ml of 1N H2 SO4, and 2 ml of heptane were added, and after vortexing and centrifugation the upper phase was transferred for counting by liquid scintillation.
In order to evaluate the interactions of D- and L-e-MAPP with ceramidase, in vitro studies we conducted using cytosolic and membrane fractions from HL-60 cells. Initially, ceramidase activity was examined for pH dependence using tritium-labeled C16 -ceramide as substrate. […] The alkaline ceramidase activity was very similar to that described in fibroblasts and cerebellar tissue (Sugita et al, Biochim. Biophys. Acta 398:125 (1975), Wertz and Downing, FEBS Lett. 268:110 (1990)). In initial studies, the ability of this ceramidase to utilize D-e- and L-e-MAPP as substrates was investigated. […] These studies corroborate the cellular metabolism studies showing that L-e-MAPP is a substrate for ceramidase in vitro and in cells.
Next, the ability of D- and L-e-MAPP to interfere with hydrolysis of C16 -ceramide by ceramidase at pH 4.5 and 9.0 was evaluated. Inhibition of ceramidase activity by D-e-MAPP was compared to that by N-oleoylethanolamine, a putative inhibitor of acid ceramidase (Sugita et al, Biochim. Biophys. Acta 398:125 (1975)). […] The effects of N-oleoylethanolamine are consistent with the previously reported Ki of 700 μM (Sugita et al, Biochim. Biophys. Acta 398:125 (1975)). […] In contrast, D-e-MAPP was a relatively poor inhibitor of acid ceramidase with less than 10% inhibition of acid ceramidase at 50 μM (FIG. 6C).

HL-60 cells [1] = test: Uptake of tritium-labeled compounds by HL-60 cells; format: cell-based, human; settings: for partitioning of label taken up into lipid organic phase: HL-60, 0-72 h, 5 to 30 μM; for uptake by cells: 24 hr
Description: Uptake and metabolism studies. HL-60 cells were grown as described and treated with ^3 H-labeled compounds at concentrations ranging from 0 to 10 μM. At the indicated time points, cell pellets were separated from media and ^3 H radioactivity was counted.
Studies were conducted examining the uptake and metabolism of D- and L-MAPP. In the first set of studies, the effect of duration of exposure of HL-60 cells to D-e-MAPP on the bioactivity of the molecule was determined. D-e-MAPP added to cells could be washed off by repeated sedimentation and washing of cells. Thus, after five cycles of washing, less than 10% of D-MAPP remained associated with the cell pellet-compared to unwashed cells (FIG. 5A).
Next, the uptake of tritium-labeled D- and L-e-MAPP was examined. To this end, D- and L-e-MAPP labeled in the N-myristoyl group were synthesized and used for uptake and metabolism studies. […] At 24 hr, approximately 20% of D-e-MAPP (5 μM) and 26% of L-e-MAPP (5 μM) were taken up by cells.
The partitioning of the label taken up by cells into the lipid organic phase was evaluated next.

acidic sphingomyelinase = target: T1, acidic sphingomyelinase (Homo sapiens, UniProt P17405); test: Acidic sphingomyelinase activity in vitro; format: biochemical
T1 sequence (P17405 47-631): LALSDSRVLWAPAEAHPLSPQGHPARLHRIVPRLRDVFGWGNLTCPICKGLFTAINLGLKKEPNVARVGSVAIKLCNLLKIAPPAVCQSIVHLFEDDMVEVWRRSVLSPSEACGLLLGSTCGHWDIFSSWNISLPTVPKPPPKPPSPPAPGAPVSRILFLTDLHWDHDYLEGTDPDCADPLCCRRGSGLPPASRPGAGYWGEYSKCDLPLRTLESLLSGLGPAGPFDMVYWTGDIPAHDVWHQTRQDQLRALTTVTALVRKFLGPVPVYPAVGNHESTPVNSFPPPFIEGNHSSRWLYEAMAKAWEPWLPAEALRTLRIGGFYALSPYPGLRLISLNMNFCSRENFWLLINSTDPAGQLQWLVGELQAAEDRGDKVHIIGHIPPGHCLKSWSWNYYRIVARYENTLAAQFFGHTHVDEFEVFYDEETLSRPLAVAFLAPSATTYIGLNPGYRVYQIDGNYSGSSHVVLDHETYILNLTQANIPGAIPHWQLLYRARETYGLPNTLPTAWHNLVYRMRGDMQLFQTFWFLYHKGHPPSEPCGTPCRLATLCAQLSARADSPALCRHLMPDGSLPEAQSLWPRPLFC
Excerpt: In addition to ceramidase, inhibition of cerebroside synthase and sphingomyelin synthase or stimulation of sphingomyelinase or cerebrosidase could result in elevations in endogenous ceramide levels. Therefore, the effects of D- and L-e-MAPP were examined on these enzyme activities in vitro and in cells.

HL-60 cells [2] = test: Cell cycle analysis by propidium iodide flow cytometry; format: cell-based, human; settings: HL-60, 5 μM, 48 h
Description: Proliferation and cell cycle studies. HL-60 human myelocytic leukemia cells (obtained from the American Type Culture Collection) were grown in RPMI 1640 medium containing 10 fetal calf serum at 37° C. in 5% CO2 incubator. For proliferation and cell cycle studies, cells were resuspended at a density of 2×10^5 cells/ml in serum-free media containing insulin (5 mg/liter) and transferrin (5 mg/liter) and sodium selenite (5 μg/liter) for 2-4 h. Cells were then treated with the indicated compounds. Ethanol concentration was always maintained at less than 0.1%. Cell proliferation was determined by counting cells using a hemacytometer, cell viability was evaluated by trypan blue dye exclusion, and cell cycle analysis was determined by propidium iodide flow cytometry as described (Chao et al, J. Biol. Chem. 267:23459 (1992)).

| Structure (SMILES) | use as substrate by alkaline ceramidase (alkaline ceramidase) | inhibition of alkaline ceramidase in vitro (alkaline ceramidase; final concentration of 5 μM) | IC50 (alkaline ceramidase; pH 9.0, 50 μM C16-ceramide substrate) | partitioning of label taken up into lipid organic phase (HL-60 cells [1]) | uptake by cells (HL-60 cells [1]; HL-60, 5 μM) | compound remaining associated with the cell pellet after washing (HL-60 cells [1]; HL-60, 5 μM, five cycles of washing, compared to unwashed cells) | effect on activity of acidic sphingomyelinase (acidic sphingomyelinase) | population of cells in G2/M phase (HL-60 cells [2]; from 10% untreated) | population of cells in S phase (HL-60 cells [2]; from 30% untreated) | population of cells in G0/G1 phase (HL-60 cells [2]; from 60% untreated) | effect on cell cycle progression (HL-60 cells [2]) |
| --- | --- | --- | --- | --- | --- | --- | --- | --- | --- | --- | --- |
| CCCCCCCCCCCCCC(=O)N[C@H](C)[C@@H](O)c1ccccc1 [D-e-MAPP, D-erythro-2-(N-myristolyamino)-1-phenyl-1-propanol] | not substrate for the alkaline ceramidase | approximately 60% | 1000 to 5000 nM | majority of the label in D-e-MAPP or L-e-MAPP remained associated with the organic phase | approximately 20% | less than 10% | neither D- nor L-e-MAPP modulated the activity of neutral or acidic sphingomyelinases | 3% | 24% | 73% |  |
| CCCCCCCCCCCCCC(=O)N[C@@H](C)[C@H](O)c1ccccc1 [L-e-MAPP, L-erythro-2-(N-myristolyamino)-1-phenyl-1-propanol] | readily hydrolyzed by ceramidase to a level equivalent to that seen with C16 -ceramide |  |  | majority of the label in D-e-MAPP or L-e-MAPP remained associated with the organic phase | ~26% |  | neither D- nor L-e-MAPP modulated the activity of neutral or acidic sphingomyelinases |  |  |  | largely without effect |
